Data from paper doi:10.1101/2025.11.20.689572v1 (biorxiv, 2025).

Tests used:
[1] = molecular target: CHRM3 (Homo sapiens, UniProt P20309); experiment: cell-based
[2] = molecular target: β2 (Homo sapiens, UniProt P07550); experiment: competitive radioligand binding, HEK293 membranes; design: gene ADRB2; full-length receptor; HEK293 cell membranes
From the text: competitive radioligand binding, HEK293 membranes on β2

[3] = molecular target: T1, 5-HT4 (Homo sapiens, UniProt Q13639); experiment: biochemical; design: species or system HEK293; PDSP competitive radioligand binding, membranes of transfected HEK293 cells, filtration, Ki by Cheng-Prusoff; conditions: read-out: N-desmethyl-xanomeline (PDSP) pKi (converted)
T1 construct: gene HTR4
T1 sequence (Q13639 whole entry): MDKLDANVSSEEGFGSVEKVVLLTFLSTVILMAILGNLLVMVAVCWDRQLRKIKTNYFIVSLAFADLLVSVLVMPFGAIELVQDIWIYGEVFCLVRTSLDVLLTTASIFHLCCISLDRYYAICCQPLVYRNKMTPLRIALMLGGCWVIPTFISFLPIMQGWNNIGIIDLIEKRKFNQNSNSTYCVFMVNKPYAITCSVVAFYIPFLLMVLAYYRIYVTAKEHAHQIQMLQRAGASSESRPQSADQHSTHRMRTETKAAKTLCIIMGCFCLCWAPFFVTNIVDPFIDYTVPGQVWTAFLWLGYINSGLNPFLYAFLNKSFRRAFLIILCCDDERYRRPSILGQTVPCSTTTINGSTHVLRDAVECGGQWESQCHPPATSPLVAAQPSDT
Method: (§1) Competitive radioligand binding assays were performed at the NIMH Psychoactive Drug Screening Program (PDSP) using membranes from transiently transfected HEK293 cells in 96-well format as described. Complete, target-specific protocols are available at the PDSP website (https://pdsp.unc.edu/pdspweb/?site=assays). Primary screenings were run at a single test concentration (10 µM) in quadruplicate. […] Secondary assays were conducted in triplicate using 12-point serial dilutions (0, 0.1, 0.3, 1, 3, 10, 30, 100, 300 nM; 1, 3, 10 µM). Assays were performed in a final volume of 125 µL per well in binding buffer, as detailed in the NIMH PDSP protocols (e.g., standard binding buffer: 50 mM Tris-HCl, pH 7.4, 10 mM MgCl2, 0.1 mM EDTA). Radioligand concentrations were chosen near the target-specific Kd. Total and nonspecific binding were defined in the absence and presence, respectively, of 10 µM reference ligand specific for each receptor. After 90 min incubation at room temperature, reactions were terminated by vacuum filtration onto 0.3% polyethyleneimine-pretreated UniFilter-96 GF/C Microplates using a FilterMate harvester, washed three times with ice-cold buffer (50 mM Tris HCl, pH 7.4), dried, treated with MicroScint-O [compound left out] scintillation cocktails, and counted on a MicroBeta counter. Equilibrium inhibition constants (Ki) were calculated from fitted IC50 values using the Cheng–Prusoff equation [14] with the assay-specific radioligand concentration and Kd. TABLE 1. […] Results represented mean ± SEM from a minimum of 3 independent assays, each in triplicate. ND=not determined.

[4] = molecular target: DRD1 (Homo sapiens, UniProt P21728); experiment: biochemical; design: species or system HEK293; PDSP competitive radioligand binding, membranes of transfected HEK293 cells, filtration, Ki by Cheng-Prusoff; conditions: read-out: N-desmethyl-xanomeline (PDSP) pKi (converted)
Chain of DRD1 (P21728 whole entry): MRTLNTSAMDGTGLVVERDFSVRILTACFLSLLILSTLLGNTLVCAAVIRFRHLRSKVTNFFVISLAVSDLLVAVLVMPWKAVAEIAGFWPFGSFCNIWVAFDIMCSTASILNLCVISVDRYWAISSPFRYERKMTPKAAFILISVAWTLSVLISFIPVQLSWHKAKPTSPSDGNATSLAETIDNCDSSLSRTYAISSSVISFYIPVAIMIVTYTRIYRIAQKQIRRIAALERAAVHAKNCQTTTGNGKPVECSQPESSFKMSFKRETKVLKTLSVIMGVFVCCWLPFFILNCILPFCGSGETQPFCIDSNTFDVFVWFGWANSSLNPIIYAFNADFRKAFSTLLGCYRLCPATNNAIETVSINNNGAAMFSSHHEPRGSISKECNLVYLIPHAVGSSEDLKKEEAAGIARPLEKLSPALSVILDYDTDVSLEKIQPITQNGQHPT
Method: as §1

[5] = molecular target: T2, α1A (Homo sapiens, UniProt P35348); experiment: competitive radioligand binding, HEK293 membranes; design: gene ADRA1A; full-length receptor; HEK293 cell membranes
T2 sequence (P35348 whole entry): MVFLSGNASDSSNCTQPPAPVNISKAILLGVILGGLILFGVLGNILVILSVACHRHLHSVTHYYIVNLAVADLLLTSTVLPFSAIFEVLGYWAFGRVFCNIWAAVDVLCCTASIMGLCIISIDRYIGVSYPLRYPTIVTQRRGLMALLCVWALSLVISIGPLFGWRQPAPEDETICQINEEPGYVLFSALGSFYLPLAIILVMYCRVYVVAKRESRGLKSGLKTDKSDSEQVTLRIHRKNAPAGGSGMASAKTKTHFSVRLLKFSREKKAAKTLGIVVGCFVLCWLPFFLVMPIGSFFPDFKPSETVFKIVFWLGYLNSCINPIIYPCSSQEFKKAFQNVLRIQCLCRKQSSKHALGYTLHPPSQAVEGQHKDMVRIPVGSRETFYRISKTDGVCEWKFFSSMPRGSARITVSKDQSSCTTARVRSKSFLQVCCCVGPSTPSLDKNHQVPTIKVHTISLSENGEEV
From the text: competitive radioligand binding, HEK293 membranes on α1A

[6] = molecular target: T3, 5-HT6 (Homo sapiens, UniProt P50406); experiment: biochemical; design: species or system HEK293; PDSP competitive radioligand binding, membranes of transfected HEK293 cells, filtration, Ki by Cheng-Prusoff
T3 construct: gene HTR6
T3 sequence (P50406 whole entry): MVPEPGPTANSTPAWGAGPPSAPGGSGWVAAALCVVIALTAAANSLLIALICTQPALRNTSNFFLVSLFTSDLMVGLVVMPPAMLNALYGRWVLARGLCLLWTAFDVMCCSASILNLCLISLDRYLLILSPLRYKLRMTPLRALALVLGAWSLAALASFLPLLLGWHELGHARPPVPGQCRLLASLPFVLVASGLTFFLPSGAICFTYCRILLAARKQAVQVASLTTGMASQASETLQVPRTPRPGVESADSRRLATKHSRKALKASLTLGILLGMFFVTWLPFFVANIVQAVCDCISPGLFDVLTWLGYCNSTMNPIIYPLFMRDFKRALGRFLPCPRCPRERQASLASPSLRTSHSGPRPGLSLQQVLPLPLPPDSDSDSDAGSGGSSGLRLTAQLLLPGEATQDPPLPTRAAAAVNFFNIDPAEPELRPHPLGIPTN
Method: as §1

[7] = molecular target: T4, 5-HT1E (Homo sapiens, UniProt P28566); experiment: biochemical; design: species or system HEK293; PDSP competitive radioligand binding, membranes of transfected HEK293 cells, filtration, Ki by Cheng-Prusoff
T4 construct: gene HTR1E
T4 sequence (P28566 whole entry): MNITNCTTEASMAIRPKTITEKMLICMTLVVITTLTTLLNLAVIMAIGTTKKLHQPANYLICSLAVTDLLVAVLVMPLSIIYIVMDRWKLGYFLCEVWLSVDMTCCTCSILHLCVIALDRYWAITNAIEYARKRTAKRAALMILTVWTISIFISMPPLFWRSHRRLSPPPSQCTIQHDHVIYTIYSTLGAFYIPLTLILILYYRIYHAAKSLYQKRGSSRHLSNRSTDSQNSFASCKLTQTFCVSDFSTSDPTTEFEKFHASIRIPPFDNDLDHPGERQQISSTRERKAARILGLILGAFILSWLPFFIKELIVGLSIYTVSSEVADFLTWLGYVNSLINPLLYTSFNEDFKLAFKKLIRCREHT
Method: as §1

[8] = molecular target: T5, HTR1A (Homo sapiens, UniProt P08908); experiment: biochemical; design: species or system HEK293; PDSP competitive radioligand binding, membranes of transfected HEK293 cells, filtration, Ki by Cheng-Prusoff
T5 sequence (P08908 1-422): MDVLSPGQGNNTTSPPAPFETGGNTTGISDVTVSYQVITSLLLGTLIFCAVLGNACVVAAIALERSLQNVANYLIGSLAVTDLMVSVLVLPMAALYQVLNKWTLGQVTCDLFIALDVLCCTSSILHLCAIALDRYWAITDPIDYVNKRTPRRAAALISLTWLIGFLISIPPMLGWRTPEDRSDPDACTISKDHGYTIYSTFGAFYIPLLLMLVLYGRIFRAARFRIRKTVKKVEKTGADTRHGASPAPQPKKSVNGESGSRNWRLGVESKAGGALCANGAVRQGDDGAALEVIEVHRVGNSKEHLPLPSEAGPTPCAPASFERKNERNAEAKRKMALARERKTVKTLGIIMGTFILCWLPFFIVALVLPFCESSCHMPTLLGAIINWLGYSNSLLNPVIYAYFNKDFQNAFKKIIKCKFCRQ
Method: as §1

[9] = molecular target: T6, DAT (Homo sapiens, UniProt Q01959); experiment: biochemical; design: species or system HEK293; PDSP competitive radioligand binding, membranes of transfected HEK293 cells, filtration, Ki by Cheng-Prusoff
T6 construct: gene SLC6A3
T6 sequence (Q01959 whole entry): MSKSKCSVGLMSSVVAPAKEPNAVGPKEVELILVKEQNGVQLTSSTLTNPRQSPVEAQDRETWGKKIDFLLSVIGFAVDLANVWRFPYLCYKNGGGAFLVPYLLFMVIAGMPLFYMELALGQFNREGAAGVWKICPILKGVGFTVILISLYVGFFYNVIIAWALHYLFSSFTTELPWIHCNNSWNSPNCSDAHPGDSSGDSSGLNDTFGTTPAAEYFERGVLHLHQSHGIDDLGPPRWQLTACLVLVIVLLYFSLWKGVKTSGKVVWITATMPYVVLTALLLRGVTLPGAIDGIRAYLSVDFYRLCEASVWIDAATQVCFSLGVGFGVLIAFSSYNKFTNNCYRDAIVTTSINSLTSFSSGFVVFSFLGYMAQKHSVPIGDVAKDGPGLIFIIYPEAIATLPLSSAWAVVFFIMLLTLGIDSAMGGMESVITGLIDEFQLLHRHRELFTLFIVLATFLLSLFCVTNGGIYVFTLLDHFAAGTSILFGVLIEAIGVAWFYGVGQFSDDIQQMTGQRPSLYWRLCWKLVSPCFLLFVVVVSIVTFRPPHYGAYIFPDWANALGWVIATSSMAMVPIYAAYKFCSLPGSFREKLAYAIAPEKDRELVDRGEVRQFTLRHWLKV
Method: as §1

[10] = molecular target: T7, β3 (Homo sapiens, UniProt P13945); experiment: biochemical; design: species or system HEK293; PDSP competitive radioligand binding, membranes of transfected HEK293 cells, filtration, Ki by Cheng-Prusoff
T7 construct: gene ADRB3
T7 sequence (P13945 whole entry): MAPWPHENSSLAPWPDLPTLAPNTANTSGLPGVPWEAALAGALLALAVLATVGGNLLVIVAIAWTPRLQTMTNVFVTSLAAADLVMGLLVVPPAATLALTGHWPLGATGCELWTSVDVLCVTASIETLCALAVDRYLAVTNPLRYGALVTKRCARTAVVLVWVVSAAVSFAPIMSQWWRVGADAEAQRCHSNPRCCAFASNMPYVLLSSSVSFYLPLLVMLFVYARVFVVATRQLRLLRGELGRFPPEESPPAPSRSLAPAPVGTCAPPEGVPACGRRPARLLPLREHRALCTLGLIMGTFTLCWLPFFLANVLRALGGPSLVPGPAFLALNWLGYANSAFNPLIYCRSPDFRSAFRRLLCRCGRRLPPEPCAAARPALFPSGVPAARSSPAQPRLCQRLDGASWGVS
Method: as §1

[11] = molecular target: HRH4 (Homo sapiens, UniProt Q9H3N8); experiment: biochemical; design: species or system HEK293; PDSP competitive radioligand binding, membranes of transfected HEK293 cells, filtration, Ki by Cheng-Prusoff
Chain of HRH4 (Q9H3N8 whole entry): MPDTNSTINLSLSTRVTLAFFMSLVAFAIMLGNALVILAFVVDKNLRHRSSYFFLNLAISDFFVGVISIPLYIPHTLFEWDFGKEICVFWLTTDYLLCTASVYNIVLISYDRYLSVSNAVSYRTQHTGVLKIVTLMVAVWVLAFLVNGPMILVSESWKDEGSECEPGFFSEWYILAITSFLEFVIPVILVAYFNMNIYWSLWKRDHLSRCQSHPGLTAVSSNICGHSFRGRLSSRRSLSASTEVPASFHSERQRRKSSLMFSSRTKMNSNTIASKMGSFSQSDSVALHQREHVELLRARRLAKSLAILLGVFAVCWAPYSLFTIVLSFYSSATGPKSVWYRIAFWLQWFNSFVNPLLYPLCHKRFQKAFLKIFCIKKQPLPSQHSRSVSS
Method: as §1

[12] = molecular target: T2, α1A; experiment: biochemical; design: gene ADRA1A; species or system HEK293; PDSP competitive radioligand binding, membranes of transfected HEK293 cells, filtration, Ki by Cheng-Prusoff
Method: Competitive radioligand binding assays were performed at the NIMH Psychoactive Drug Screening Program (PDSP) using membranes from transiently transfected HEK293 cells in 96-well format as described. Complete, target-specific protocols are available at the PDSP website (https://pdsp.unc.edu/pdspweb/?site=assays). Primary screenings were run at a single test concentration (10 µM) in quadruplicate. […] Secondary assays were conducted in triplicate using 12-point serial dilutions (0, 0.1, 0.3, 1, 3, 10, 30, 100, 300 nM; 1, 3, 10 µM). Assays were performed in a final volume of 125 µL per well in binding buffer, as detailed in the NIMH PDSP protocols (e.g., standard binding buffer: 50 mM Tris-HCl, pH 7.4, 10 mM MgCl2, 0.1 mM EDTA). Radioligand concentrations were chosen near the target-specific Kd. […] After 90 min incubation at room temperature, reactions were terminated by vacuum filtration onto 0.3% polyethyleneimine-pretreated UniFilter-96 GF/C Microplates using a FilterMate harvester, washed three times with ice-cold buffer (50 mM Tris HCl, pH 7.4), dried, treated with MicroScint-O [compound left out] scintillation cocktails, and counted on a MicroBeta counter. Equilibrium inhibition constants (Ki) were calculated from fitted IC50 values using the Cheng–Prusoff equation [14] with the assay-specific radioligand concentration and Kd. […] ND=not determined.

Chain of CHRM3 (P20309 whole entry): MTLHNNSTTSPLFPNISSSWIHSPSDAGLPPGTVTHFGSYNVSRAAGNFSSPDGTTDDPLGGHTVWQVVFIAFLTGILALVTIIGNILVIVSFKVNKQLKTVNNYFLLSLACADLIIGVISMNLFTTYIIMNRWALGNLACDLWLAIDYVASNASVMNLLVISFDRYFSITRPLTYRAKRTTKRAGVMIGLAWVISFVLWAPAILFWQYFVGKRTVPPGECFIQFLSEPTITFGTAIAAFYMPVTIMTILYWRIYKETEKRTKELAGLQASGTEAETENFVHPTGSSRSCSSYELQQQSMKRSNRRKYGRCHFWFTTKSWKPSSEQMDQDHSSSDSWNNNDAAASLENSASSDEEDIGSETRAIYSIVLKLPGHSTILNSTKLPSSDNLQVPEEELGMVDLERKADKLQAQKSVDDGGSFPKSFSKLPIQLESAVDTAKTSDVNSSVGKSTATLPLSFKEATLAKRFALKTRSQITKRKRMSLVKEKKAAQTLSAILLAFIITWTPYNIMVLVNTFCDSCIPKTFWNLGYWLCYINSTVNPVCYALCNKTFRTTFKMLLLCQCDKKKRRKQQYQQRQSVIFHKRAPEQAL
Chain of β2 (P07550 whole entry): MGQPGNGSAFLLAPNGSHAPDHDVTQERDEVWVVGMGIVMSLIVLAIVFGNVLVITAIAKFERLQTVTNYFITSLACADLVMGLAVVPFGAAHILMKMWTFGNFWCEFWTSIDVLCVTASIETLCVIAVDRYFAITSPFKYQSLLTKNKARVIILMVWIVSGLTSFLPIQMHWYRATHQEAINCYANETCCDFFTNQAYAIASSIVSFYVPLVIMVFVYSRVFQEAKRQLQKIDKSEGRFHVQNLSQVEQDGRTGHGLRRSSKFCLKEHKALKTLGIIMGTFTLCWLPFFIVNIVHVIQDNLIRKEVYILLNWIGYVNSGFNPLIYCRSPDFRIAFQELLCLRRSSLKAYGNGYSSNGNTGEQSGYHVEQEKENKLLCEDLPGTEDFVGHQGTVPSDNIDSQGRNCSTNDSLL

| Compound | EC50 [1] [µM] | Ki [2] [µM] | Ki [3] [µM] | Ki [4] [µM] | Ki [5] [µM] | Ki [6] [µM] | Ki [7] [µM] | Ki [8] [µM] | Ki [9] [µM] | Ki [10] [µM] | Ki [11] [µM] | Ki [12] [µM] |
| --- | --- | --- | --- | --- | --- | --- | --- | --- | --- | --- | --- | --- |
| CCCCCCOc1nsnc1C1=CCCNC1 [N-desmethylxanomeline] | 0.38 | 0.832 | 3.72 | 2.34 | 0.282 | – | – | – | – | – | – | – |
| CCCCCCOc1nsnc1C1=CCCN(C)C1 [Xanomeline] | – | – | – | – | – | 3.98 | > 10 | 5.89 | > 10 | > 10 | > 10 | > 10 |
